From US20060252807A1, “Novel ortho-terphenyl inhibitors of p38 kinase and methods of treating inflammatory disorders” (Kalypsys, Inc., priority 2005, published 2006)

molecular target: T1, active p38 alpha enzyme (Upstate Biotechnology) (Homo sapiens, UniProt Q16539); test: p38α biochemical assay (ATP turnover, luminescent detection, Cambrex PKlight); settings: p38α biochemical assay, Table 1 Biological Activity
T1 construct: purchased Upstate Biotechnology
Summary of the method: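 Measures total ATP turnover by luminescence after human p38α phosphorylates full MapkapK2 protein. Final ATP is 1.4 uM, and incubation runs 2 hours at 30C. The buffer includes 100 mM MgCl2, 4 mM CaCl2 and 1 mg/ml BSA.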

T1 sequence (Q16539 whole entry): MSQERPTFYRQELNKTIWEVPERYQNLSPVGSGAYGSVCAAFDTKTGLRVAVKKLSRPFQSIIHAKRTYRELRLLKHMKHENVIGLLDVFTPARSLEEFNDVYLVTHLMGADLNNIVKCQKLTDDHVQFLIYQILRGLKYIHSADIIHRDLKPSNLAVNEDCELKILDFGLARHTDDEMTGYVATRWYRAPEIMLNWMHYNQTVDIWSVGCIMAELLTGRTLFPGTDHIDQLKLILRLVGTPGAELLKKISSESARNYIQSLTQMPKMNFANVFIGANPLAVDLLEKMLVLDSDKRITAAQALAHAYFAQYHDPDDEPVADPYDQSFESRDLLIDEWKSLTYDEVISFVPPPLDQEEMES

SMILES	IC50 [nM]
CC(C)NC(=O)c1csc(-c2oc(CN3CCN(C(=O)C4Cc5ccccc5CN4C(=O)OC(C)(C)C)CC3)nc2-c2ccc(F)cc2)n1 (centres unmarked) [Example 570]	> 1000
CC(C)NC(=O)c1csc(-c2oc(CN3CCN(C(=O)c4ccccc4[N+](=O)[O-])CC3)nc2-c2ccc(F)cc2)n1 [Example 421]	> 1000
CC(C)NC(=O)c1csc(-c2c(-c3ccc(F)cc3)noc2CNC(=O)c2ccc(-c3ccc(O)cc3)cc2)n1 [Example 766]	> 1000
CC(C)NC(=O)c1csc(-c2oc(CN3CCN(C(=O)c4cc5ccccc5cc4O)CC3)nc2-c2ccc(F)cc2)n1 [Example 481]	> 1000
CC(C)CC(=O)NCc1nc(-c2ccc(F)cc2)c(-c2nc(C(=O)NC(C)C)cs2)o1 [Example 104]	≤ 1000
CC(C)NC(=O)c1csc(-c2oc(CN3CCN(C(=O)c4cc(O)ccc4[N+](=O)[O-])CC3)nc2-c2ccc(F)cc2)n1 [Example 470]	> 1000
CC(C)NC(=O)c1csc(-c2oc(CN3CCN(C(=O)c4ccc(C(C)C)cc4)CC3)nc2-c2ccc(F)cc2)n1 [Example 408]	> 1000
CC(C)NC(=O)c1csc(-c2oc(CNC(=O)c3cc([N+](=O)[O-])ccc3Cl)nc2-c2ccc(F)cc2)n1 [Example 271]	≤ 1000
COc1ccc(C(=O)N2CCN(Cc3nc(-c4ccc(F)cc4)c(-c4nc(C(=O)NC(C)C)cs4)o3)CC2)c(OC)c1 [Example 462]	≤ 1000
CCCc1ccc(C(=O)N2CCN(Cc3nc(-c4ccc(F)cc4)c(-c4nc(C(=O)NC(C)C)cs4)o3)CC2)cc1 [Example 413]	> 1000
CC(C)NC(=O)c1csc(-c2oc(CN3CCN(C(=O)c4cc(Cl)ccn4)CC3)nc2-c2ccc(F)cc2)n1 [Example 392]	> 1000
COc1cc(OC)c(C(=O)N2CCN(Cc3nc(-c4ccc(F)cc4)c(-c4nc(C(=O)NC(C)C)cs4)o3)CC2)c(OC)c1 [Example 520]	≤ 1000
CCC(C(=O)NCc1nc(-c2ccc(F)cc2)c(-c2nc(C(=O)NC(C)C)cs2)o1)c1ccccc1 (centres unmarked) [Example 174]	> 1000
CC(C)NC(=O)c1csc(-c2oc(CNC(=O)c3ccc4ncccc4c3)nc2-c2ccc(F)cc2)n1 [Example 197]	≤ 1000
CC(C)NC(=O)c1csc(-c2oc(CN3CCN(C(=O)c4cccc(Cl)c4[N+](=O)[O-])CC3)nc2-c2ccc(F)cc2)n1 [Example 507]	≤ 1000
CC(C)NC(=O)c1csc(-c2oc(CN3CCN(C(=O)CCc4ccccc4O)CC3)nc2-c2ccc(F)cc2)n1 [Example 418]	≤ 1000
CC(C)NC(=O)c1csc(-c2oc(CN3CCN(C(=O)C(C)c4ccc(-c5ccccc5)c(F)c4)CC3)nc2-c2ccc(F)cc2)n1 (centres unmarked) [Example 561]	> 1000
COCc1onc(-c2ccc(Cl)cc2)c1-c1ccn(C(=O)NC(C)C)n1 [Example 22, 3-|3-(4-Chloro-phenyl)-5-methoxymethyl-isoxazol-4-yl|-pyrazole-1-carboxylic acid isopropylamide]	≤ 1000
CC(C)NC(=O)c1csc(-c2oc(CN3CCN(C(=O)c4cc(F)cc(F)c4)CC3)nc2-c2ccc(F)cc2)n1 [Example 397]	> 1000
CC(C)NC(=O)c1csc(-c2oc(CNC(=O)c3c(Cl)cc(Cl)cc3Cl)nc2-c2ccc(F)cc2)n1 [Example 306]	≤ 1000
CC(C)NC(=O)c1csc(-c2oc(CN3CCN(C(=O)Cc4c(F)cccc4F)CC3)nc2-c2ccc(F)cc2)n1 [Example 430]	> 1000
CC(C)NC(=O)c1csc(-c2c(-c3ccc(F)cc3)noc2CNC(=O)C2CCc3ccccc3C2)n1 (centres unmarked) [Example 679]	> 1000
CC(C)NC(=O)c1csc(-c2oc(CNC(=O)c3cc(Br)ccc3Cl)nc2-c2ccc(F)cc2)n1 [Example 320]	≤ 1000

same assay, conditions: p38α kinase; Table 1 Biological Activity

SMILES	IC50 [nM]
CC(C)NC(=O)c1csc(-c2oc(CNCCc3ccc(Cl)cc3)nc2-c2ccc(F)cc2)n1 [Example 1150]	> 1000
CC(C)NC(=O)c1csc(-c2c(-c3ccc(F)cc3)noc2CN2CCSCC2)n1 [Example 1529]	> 1000
CC(C)NC(=O)c1csc(-c2oc(CN(CCCO)Cc3ccccn3)nc2-c2ccc(F)cc2)n1 [Example 1245]	> 1000
CCN(C)Cc1nc(-c2ccc(F)cc2)c(-c2nc(C(=O)NC(C)C)cs2)o1 [Example 1186]	> 1000
O=C(NC1CONC1=O)c1csc(-c2c(-c3ccc(F)cc3)n[nH]c2C2CCNCC2)n1 (centres unmarked) [Example 2059]	> 1000
CC(C)NC(=O)c1csc(-c2c(-c3ccc(F)cc3)n[nH]c2C2CCN(C(=O)C(C)c3ccc(-c4ccccc4)c(F)c3)CC2)n1 (centres unmarked) [Example 1038]	> 1000
CC(C)NC(=O)c1csc(-c2c(-c3ccc(F)cc3)noc2CNc2ccccc2-n2cccc2)n1 [Example 1679]	> 1000
Cc1ccc([C@H](C)NCc2nc(-c3ccc(F)cc3)c(-c3nc(C(=O)NC(C)C)cs3)o2)cc1 [Example 1115]	> 1000
Cc1cccc(N2CCN(Cc3onc(-c4ccc(F)cc4)c3-c3nc(C(=O)NC(C)C)cs3)CC2C)c1 (centres unmarked) [Example 1590]	> 1000
COCCNC(=O)c1csc(-c2c(-c3ccc(F)cc3)n[nH]c2C2CCNCC2)n1 [Example 2043]	≤ 1000
Cc1ccc(NCc2onc(-c3ccc(F)cc3)c2-c2nc(C(=O)NC(C)C)cs2)cc1C [Example 1641]	> 1000
CC(C)NC(=O)c1csc(-c2c(-c3ccc(F)cc3)n[nH]c2C2CCN(C(=O)c3ccncc3)CC2)n1 [Example 2178, 2-{3-(4-Fluoro-phenyl)-5-|1-(pyridine-4-carbonyl)-piperidin-4-yl|-1H-pyrazol-4-yl}-thiazole-4-carboxylic acid isopropylamide]	≤ 1000
CCCN(C)Cc1onc(-c2ccc(F)cc2)c1-c1nc(C(=O)NC(C)C)cs1 [Example 1514]	≤ 1000
COc1ccc(/C=C/C(=O)N2CCC(c3[nH]nc(-c4ccc(F)cc4)c3-c3nc(C(=O)NC(C)C)cs3)CC2)cc1O [Example 976]	> 1000
COc1ccccc1N1CCN(Cc2nc(-c3ccc(F)cc3)c(-c3nc(C(=O)NC(C)C)cs3)o2)CC1 [Example 1270]	> 1000
CC(C)NC(=O)c1csc(-c2c(-c3ccc(F)cc3)noc2CNCc2cccc(C(F)(F)F)c2)n1 [Example 1494]	> 1000
CC(C)NC(=O)c1csc(-c2oc(CNCc3ccc(C(F)(F)F)cc3)nc2-c2ccc(F)cc2)n1 [Example 1166]	> 1000
CC(C)NC(=O)c1csc(-c2c(-c3ccc(F)cc3)noc2CNc2ccccc2C(C)(C)C)n1 [Example 1672]	> 1000
CC(C)NC(=O)c1csc(-c2c(-c3ccc(F)cc3)n[nH]c2C2CCN(C(=O)c3c(F)cccc3F)CC2)n1 [Example 871]	> 1000
CC(C)NC(=O)c1csc(-c2c(-c3ccc(F)cc3)noc2CNCCc2ccc(O)cc2)n1 [Example 1453]	> 1000
CN(CCCNC(=O)c1csc(-c2c(-c3ccc(F)cc3)n[nH]c2C2CCNCC2)n1)c1ccccc1 [Example 2136]	> 1000

SMILES	IC50 [nM]
CC(C)NC(=O)c1csc(-c2c(-c3ccc(F)cc3)n[nH]c2C2CCN(C(=O)c3c(F)c(F)c(F)c(F)c3F)CC2)n1 [Example 996]	> 1000
COc1ccccc1N1CCN(Cc2onc(-c3ccc(F)cc3)c2-c2nc(C(=O)NC(C)C)cs2)CC1 [Example 1596]	> 1000
CC(C)NC(=O)c1csc(-c2c(-c3ccc(F)cc3)noc2CNC(C)CO)n1 (centres unmarked) [Example 1396]	> 1000
Cc1nc(-c2ccc(F)cc2)c(-c2nc(C(=O)Nc3cc(C(F)(F)F)ccc3C(F)(F)F)cs2)s1 [Example 2022]	> 1000
Cc1nc(-c2ccc(F)cc2)c(-c2nc(C(=O)NCCC3CCCN3C)cs2)s1 (centres unmarked) [Example 1762]	> 1000
N#CCNC(=O)c1csc(-c2c(-c3ccc(F)cc3)n[nH]c2C2CCNCC2)n1 [Example 2032]	≤ 1000
O=C(NCc1cccc(Cl)c1)c1csc(-c2c(-c3ccc(F)cc3)n[nH]c2C2CCNCC2)n1 [Example 2107]	> 1000
CC1CCC(NCc2onc(-c3ccc(F)cc3)c2-c2nc(C(=O)NC(C)C)cs2)CC1 (centres unmarked) [Example 1420]	> 1000
CCN(CC)CCNCc1onc(-c2ccc(F)cc2)c1-c1nc(C(=O)NC(C)C)cs1 [Example 1426]	> 1000
CCCN(C)Cc1nc(-c2ccc(F)cc2)c(-c2nc(C(=O)NC(C)C)cs2)o1 [Example 1189]	> 1000
Cc1nc(-c2ccc(F)cc2)c(-c2nc(C(=O)NCCc3cccc(Cl)c3)cs2)s1 [Example 1804]	≤ 1000
CCOc1ccccc1C(=O)N1CCC(c2[nH]nc(-c3ccc(F)cc3)c2-c2nc(C(=O)NC(C)C)cs2)CC1 [Example 893]	> 1000
CC(C)NC(=O)c1csc(-c2c(-c3ccc(F)cc3)noc2CN2CCN(C3CCCCC3)CC2)n1 [Example 1573]	> 1000
Cc1nc(-c2ccc(F)cc2)c(-c2nc(C(=O)NCc3ccccc3Cl)cs2)s1 [Example 1786]	≤ 1000
CC(C)NC(=O)c1csc(-c2c(-c3ccc(F)cc3)noc2CN2CCCC(c3ccc(C(F)(F)F)cc3)C2)n1 (centres unmarked) [Example 1629]	> 1000
CC(C)NC(=O)c1csc(-c2oc(CNc3ccc(N(C)C)cc3)nc2-c2ccc(F)cc2)n1 [Example 1359]	> 1000
CC(C)NC(=O)c1csc(-c2c(-c3ccc(F)cc3)n[nH]c2C2CCN(C(=O)c3ccccn3)CC2)n1 [Example 2169, 2-{3-(4-Fluoro-phenyl)-5-|1-(pyridine-2-carbonyl)-piperidin-4-yl|-1H-pyrazol-4-yl}-thiazole-4-carboxylic acid isopropylamide]	≤ 1000
CC(C)NC(=O)c1csc(-c2c(-c3ccc(F)cc3)noc2CNCc2cccs2)n1 [Example 1419]	> 1000
CN1CCCC1CCNC(=O)c1csc(-c2c(-c3ccc(F)cc3)n[nH]c2C2CCNCC2)n1 (centres unmarked) [Example 2084]	> 1000
Cc1nc(-c2ccc(F)cc2)c(-c2nc(C(N)=O)cs2)o1 [Example 2159, 2-|4-(4-Fluoro-phenyl)-2-methyl-oxazol-5-yl|-thiazole-4-carboxylic acid amide]	> 1000
CC(C)NC(=O)c1csc(-c2c(-c3ccc(F)cc3)noc2CNc2ccc(F)c(C(F)(F)F)c2)n1 [Example 1690]	> 1000
